Experimental data: the supplement of paper PMC11451515

Tests used:
Settings in all cases: 48 h
[1] = test system: NOMO1; test: cell viability relative to DMSO control; higher = less cytotoxic
How it was run: (§1)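 NOMO1, SEM and P12-Ichikawa leukemia cells spent at least four passages adapting to each medium before use. They were seeded at 500 cells/well (NOMO1, SEM) or 1000 cells/well (P12-Ichikawa) in 5 μl in 1536-well plates and pin-dosed with library compounds in DMSO at 11 threefold steps from 47 μM down to 0.79 nM. After 48 h at 37°C, CellTiter-Glo One luminescence was read. Viability is reported as a percentage of the DMSO wells on each plate, with cell-free wells as background.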

[2] = test system: P12-Ichikawa; test: as above
How it was run: as §1

[3] = test system: SEM cells; test: as above
How it was run: as §1

[4] = test system: NOMO1; test: AUC of viability dose-response curve (% viability x log10 dose units); higher = less sensitive
How it was run: (§2)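 Library compounds in DMSO were applied for 48 h at 37°C at 11 threefold doses (47 μM to 0.79 nM) to medium-adapted leukemia cells in 1536-well plates holding 500 or 1000 cells/well. Luminescence from CellTiter-Glo One was normalised plate by plate against DMSO and cell-free wells. Area under the curve came from trapezoidal integration of a log-logistic fit, after scaling curves that rose above full viability and discarding those that failed quality control. The fit had four parameters and used log10 doses.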

[5] = test system: P12-Ichikawa; test: as above
How it was run: as §2

[6] = test system: SEM cells; test: as above
How it was run: as §2

FC(F)(F)C1=CC=C2C(SCCCCCO\C3=C\O\C(CN4CCOCC4)=C/C3=O)=CC=NC2=C1
cell viability [%]
Settings | [1] | [2] | [3]
HPLM + 10% dialyzed FBS, 0.000781 µM | 96 | 107 | 92.4
HPLM + 10% dialyzed FBS, 0.00234 µM | 122 | 122 | 106
HPLM + 10% dialyzed FBS, 0.00702 µM | 144 | 123 | 107
HPLM + 10% dialyzed FBS, 0.0211 µM | 119 | 120 | 106
HPLM + 10% dialyzed FBS, 0.0632 µM | 122 | 129 | 108
HPLM + 10% dialyzed FBS, 0.19 µM | 139 | 126 | 115
HPLM + 10% dialyzed FBS, 0.569 µM | 137 | 132 | 111
HPLM + 10% dialyzed FBS, 1.71 µM | 128 | 123 | 119
HPLM + 10% dialyzed FBS, 5.12 µM | 131 | 123 | 112
HPLM + 10% dialyzed FBS, 15.4 µM | 124 | 107 | 106
HPLM + 10% dialyzed FBS, 46.1 µM | 107 | 88.1 | 96.2
RPMI 5 mM glucose + 10% FBS, 0.000781 µM | 116 | 110 | 66.6
RPMI 5 mM glucose + 10% FBS, 0.00234 µM | 124 | 119 | 74.4
RPMI 5 mM glucose + 10% FBS, 0.00702 µM | 107 | 109 | 69
RPMI 5 mM glucose + 10% FBS, 0.0211 µM | 103 | 114 | 67.2
RPMI 5 mM glucose + 10% FBS, 0.0632 µM | 118 | 113 | 63.7
RPMI 5 mM glucose + 10% FBS, 0.19 µM | 135 | 109 | 72.9
RPMI 5 mM glucose + 10% FBS, 0.569 µM | 118 | 125 | 77.8
RPMI 5 mM glucose + 10% FBS, 1.71 µM | 121 | 121 | 65.4
RPMI 5 mM glucose + 10% FBS, 5.12 µM | 122 | 111 | 66.1
RPMI 5 mM glucose + 10% FBS, 15.4 µM | 112 | 94.4 | 69.4
RPMI 5 mM glucose + 10% FBS, 46.1 µM | 109 | 66 | 61.9
RPMI 5 mM glucose + 10% dialyzed FBS, 0.000781 µM | 99.3 | 112 | 112
RPMI 5 mM glucose + 10% dialyzed FBS, 0.00234 µM | 118 | 118 | 113
RPMI 5 mM glucose + 10% dialyzed FBS, 0.00702 µM | 105 | 113 | 104
RPMI 5 mM glucose + 10% dialyzed FBS, 0.0211 µM | 114 | 116 | 110
RPMI 5 mM glucose + 10% dialyzed FBS, 0.0632 µM | 131 | 130 | 102
RPMI 5 mM glucose + 10% dialyzed FBS, 0.19 µM | 112 | 116 | 112
RPMI 5 mM glucose + 10% dialyzed FBS, 0.569 µM | 125 | 127 | 115
RPMI 5 mM glucose + 10% dialyzed FBS, 1.71 µM | 129 | 119 | 110
RPMI 5 mM glucose + 10% dialyzed FBS, 5.12 µM | 114 | 115 | 99
RPMI 5 mM glucose + 10% dialyzed FBS, 15.4 µM | 109 | 104 | 102
RPMI 5 mM glucose + 10% dialyzed FBS, 46.1 µM | 92.4 | 78 | 85.7

AUC of viability dose-response curve
Settings | HPLM + 10% dialyzed FBS | RPMI 5 mM glucose + 10% FBS | RPMI 5 mM glucose + 10% dialyzed FBS
[4] | 470 | 477 | 469
[5] | 464 | 457 | 461

CC[C@@H](C(N)=O)N1CCCC1=O
AUC of viability dose-response curve
Settings | [4] | [5] | [6]
HPLM + 10% dialyzed FBS | 442 | 458 | 450
RPMI 5 mM glucose + 10% FBS | 466 | 460 | 420
RPMI 5 mM glucose + 10% dialyzed FBS | 456 | 467 | 443

CN1C(=O)CCS(=O)(=O)C1c1ccc(Cl)cc1 (stereo not drawn)
AUC of viability dose-response curve
Settings | HPLM + 10% dialyzed FBS | RPMI 5 mM glucose + 10% FBS | RPMI 5 mM glucose + 10% dialyzed FBS
[4] | 447 | 472 | 459
[5] | 452 | 448 | 442

CNNCc1ccc(C(=O)NC(C)C)cc1
cell viability [%], HPLM + 10% dialyzed FBS
Settings | [2] | [3]
0.000781 µM | 118 | 102
0.00234 µM | 123 | 118
0.00702 µM | 125 | 130
0.0211 µM | 136 | 117
0.0632 µM | 124 | 139
0.19 µM | 137 | 133
0.569 µM | 135 | 107
1.71 µM | 144 | 132
5.12 µM | 133 | 83.7
15.4 µM | 119 | 92.1
46.1 µM | 99.7 | 40.7

AUC of viability dose-response curve
Settings | [4] | [5] | [6]
HPLM + 10% dialyzed FBS | 465 | 467 | 434
RPMI 5 mM glucose + 10% FBS | 468 | 464 | 452
RPMI 5 mM glucose + 10% dialyzed FBS | 468 | 466 | 448

CCOC(=O)C(C)(C)Oc1ccc(Cl)cc1
AUC of viability dose-response curve
Settings | [4] | [5] | [6]
HPLM + 10% dialyzed FBS | 464 | 459 | 465
RPMI 5 mM glucose + 10% FBS | 453 | 464 | 471
RPMI 5 mM glucose + 10% dialyzed FBS | 453 | 461 | 476

Cc1cc(-c2ncc(CC(=O)Nc3ccc(-c4cnccn4)cn3)cc2C)ccn1
AUC of viability dose-response curve
Settings | [4] | [5] | [6]
HPLM + 10% dialyzed FBS | 445 | 458 | 462
RPMI 5 mM glucose + 10% FBS | 466 | 439 | 458
RPMI 5 mM glucose + 10% dialyzed FBS | 447 | 456 | 457

NCCS(=O)(=O)O
AUC of viability dose-response curve
Settings | [4] | [5] | [6]
HPLM + 10% dialyzed FBS | 441 | 469 | 463
RPMI 5 mM glucose + 10% FBS | 455 | 458 | 471
RPMI 5 mM glucose + 10% dialyzed FBS | 449 | 463 | 468

CN1CCN(Cc2ccc(NC(=O)Nc3ccc(Oc4cc(NC(=O)C5CC5)ncn4)cc3)cc2C(F)(F)F)CC1
cell viability [%]
Settings | [1] | [2] | [3]
HPLM + 10% dialyzed FBS, 0.000781 µM | 104 | 100 | 86.5
HPLM + 10% dialyzed FBS, 0.00234 µM | 104 | 108 | 72.2
HPLM + 10% dialyzed FBS, 0.00702 µM | 120 | 103 | 54.1
HPLM + 10% dialyzed FBS, 0.0211 µM | 129 | 113 | 53.4
HPLM + 10% dialyzed FBS, 0.0632 µM | 143 | 114 | 51.4
HPLM + 10% dialyzed FBS, 0.19 µM | 141 | 113 | 25
HPLM + 10% dialyzed FBS, 0.569 µM | 12 | 46.7 | 6.43
HPLM + 10% dialyzed FBS, 1.71 µM | 4.6 | 9.49 | 5.04
HPLM + 10% dialyzed FBS, 5.12 µM | 3.07 | 10.2 | 3.88
HPLM + 10% dialyzed FBS, 15.4 µM | 2.49 | 8.59 | 3.17
HPLM + 10% dialyzed FBS, 46.1 µM | 0.956 | 0.0522 | 0.399
RPMI 5 mM glucose + 10% FBS, 0.000781 µM | 110 | 105 | 103
RPMI 5 mM glucose + 10% FBS, 0.00234 µM | 125 | 110 | 80.1
RPMI 5 mM glucose + 10% FBS, 0.00702 µM | 118 | 117 | 53.9
RPMI 5 mM glucose + 10% FBS, 0.0211 µM | 125 | 121 | 49.1
RPMI 5 mM glucose + 10% FBS, 0.0632 µM | 138 | 122 | 41.6
RPMI 5 mM glucose + 10% FBS, 0.19 µM | 149 | 132 | 23
RPMI 5 mM glucose + 10% FBS, 0.569 µM | 22 | 44.7 | 4.1
RPMI 5 mM glucose + 10% FBS, 1.71 µM | 8.28 | 9.59 | 2.81
RPMI 5 mM glucose + 10% FBS, 5.12 µM | 6.02 | 8.79 | 2.25
RPMI 5 mM glucose + 10% FBS, 15.4 µM | 4.38 | 6.05 | 1.45
RPMI 5 mM glucose + 10% FBS, 46.1 µM | 2.32 | 0.799 | 0.371
RPMI 5 mM glucose + 10% dialyzed FBS, 0.000781 µM | 106 | 92.4 | 94.9
RPMI 5 mM glucose + 10% dialyzed FBS, 0.00234 µM | 122 | 113 | 72.4
RPMI 5 mM glucose + 10% dialyzed FBS, 0.00702 µM | 114 | 111 | 44.6
RPMI 5 mM glucose + 10% dialyzed FBS, 0.0211 µM | 125 | 121 | 36.5
RPMI 5 mM glucose + 10% dialyzed FBS, 0.0632 µM | 146 | 122 | 46
RPMI 5 mM glucose + 10% dialyzed FBS, 0.19 µM | 161 | 123 | 23.7
RPMI 5 mM glucose + 10% dialyzed FBS, 0.569 µM | 18 | 35.4 | 5.01
RPMI 5 mM glucose + 10% dialyzed FBS, 1.71 µM | 6.64 | 12.8 | 4.22
RPMI 5 mM glucose + 10% dialyzed FBS, 5.12 µM | 5.97 | 11.6 | 3.2
RPMI 5 mM glucose + 10% dialyzed FBS, 15.4 µM | 3.84 | 11.8 | 2.37
RPMI 5 mM glucose + 10% dialyzed FBS, 46.1 µM | 2.43 | 0.55 | 0.407

AUC of viability dose-response curve
Settings | HPLM + 10% dialyzed FBS | RPMI 5 mM glucose + 10% FBS | RPMI 5 mM glucose + 10% dialyzed FBS
[4] | 271 | 278 | 275
[5] | 285 | 289 | 291
